Data as given in patent US20120015390A1, “Methods for the Detection and Treatment of Aberrant Prion Disease” (PROTEA BIOPHARMA N.V., priority 2009, published 2012).
Where “and” joins values, the source holds several entries; their conditions need not be identical. Equal values may be shown once.

Experiments:
[1] = system: aberrant membrane NADH oxidase; format: cell-based
NADH oxidase = format: cell-based
NADH-oxidase = details: in vivo

[Cl][Cd][Cl] [CdCl2]
CPM NADH hypotoon [1]: 376 CPM | CPM NADH isotoon [1]: 114 CPM | CPM iso/hypo [1]: 0.30

C[S+](C)[O-] [DMSO]
chemiluminescence response after addition of substance and hypotonic NADH (NADH oxidase): significant concentration-dependent increase | chemiluminescence response after addition of substance and isotonic NADH (NADH oxidase): not observed | isotonic NADH induced lucigenin-dependent chemiluminescence in urine (NADH-oxidase): increases

[Cl][Ni][Cl] [NiCl2]
CPM NADH hypotoon [1]: 860 CPM | CPM NADH isotoon [1]: 913 CPM | CPM iso/hypo [1]: 1.06 | induction of aberrant NADH-oxidase (higher counts under isotonic conditions) [1]: suggest induction of aberrant NADH-oxidase

O=[N+]([O-])[O-].O=[N+]([O-])[O-].[Pb+2] [Pb(NO3)2]
CPM NADH hypotoon [1]: 817 CPM | CPM NADH isotoon [1]: 1402 CPM | CPM iso/hypo [1]: 1.71 | induction of aberrant NADH-oxidase (higher counts under isotonic conditions) [1]: suggest induction of aberrant NADH-oxidase

C[CH2][Hg][S]c1ccccc1C(=O)[O-].[Na+] [Thimerosal]
CPM NADH hypotoon [1]: 3338 CPM | CPM NADH isotoon [1]: 2380 CPM | CPM iso/hypo [1]: 0.71

Heparin
CPM (NADH oxidase): 17740 CPM and 15303 CPM and 14082 CPM and 10372 CPM and 9192 CPM | chemiluminescence response after addition of substance and hypotonic NADH (NADH oxidase): significant concentration-dependent increase | chemiluminescence response after addition of substance and isotonic NADH (NADH oxidase): not observed

HgCl2
formation of cell surface associated aberrant NADH oxidase (NADH oxidase): induces the formation of cell surface associated aberrant NADH oxidase | CPM NADH hypotoon [1]: 18 CPM | CPM NADH isotoon [1]: 101 CPM | CPM iso/hypo [1]: 5.61 | induction of aberrant NADH-oxidase (higher counts under isotonic conditions) [1]: suggest induction of aberrant NADH-oxidase
